The source of these data is patent US11117901B2, “Substituted pyrazolo[4,3-h]quinazolines as choline kinase inhibitors” (NERVIANO MEDICAL SCIENCES S.R.L., priority 2017, dated 2021).

One assay concerns the target T1, Δ49N-hChoKα (Homo sapiens, UniProt P35790).
T1 construct: cDNA fragment 362-1534, corresponding to aminoacids 50 457; GST (N, cleaved yes); PreScission Protease recognition site (N); made in house; host or cells: Escherichia coli BL21pLysS (DE3)
In words: Biochemical kinase inhibition assay (Kinase-Glo luminescent) on Δ49N-hChoKα. The conditions noted are these: recombinant Δ49N-hChoKα 2.2 nM, ATP 5 μM, choline 5 μM, 60 min rt; read-out: ChoKα IC50. The method, boiled down:
(§1)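 Kinase-Glo residual-ATP luminescence with in-house E. coli-expressed, tag-cleaved enzymes: Δ49N-hChoKα 2.2 nM with 5 μM choline; hChoKβ FL 30 nM with 20 μM choline. Both used 5 μM ATP, 60 min at room temperature, 1% DMSO, pH 7.5 Hepes buffer. IC50 from 4-parameter fits of ten 3-fold dilutions from 10 μM.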
In general terms: Kinase-Glo measures the ATP left after a reaction by luminescence.

For assay [1], the system named is [Phosphocholine] in MDA-MB-468 cell extracts. In words: Phosphocholine determination assay in cell extracts (target inhibition in cells). In kind it is cell-based. The conditions noted are these: Homo sapiens, 24 h treatment, vs untreated control. As for the experimental part:
(§2) For the determination of phosphocholine in cells, extracts were prepared according to ref. Cancer Res., 2005, 65, 9369-9376 with some modifications. MDA-MB-468 breast cancer cell line was plated at 1×10^6 cells in 10 cm petri dish culture in RPMI, 10% FCS culture medium. After 24 h, fresh medium and a compound of general formula (I) were added for further 24 h. At the end of the treatment, the cells were trypsinised, counted and the diameter was determined using a Coulter Counter (Multisizer 3, Beckman). Cells were washed twice with ice-cold physiologic saline solution and 2×10^6 cells resuspended in 0.3 mL ice-cold twice-distilled water. Then, 0.7 mL ice-cold absolut EtOH were added (final ratio EtOH/H2O 70:30, v/v). After 24 h at −20° C. the samples were sonicated and centrifuged at 14,000×g for 30 minutes.
(§3) Phosphocholine concentration levels were assessed in the supernatants using an Ultra High Pressure Liquid Chromatography system (UPLC®, Waters) coupled with a triple quadrupoles mass spectrometer (TQD, Waters) operating in single reaction monitoring mode (SRM). Analyses were performed using Acquity HSS T3 column 2.1×50 mm column, 1.8 μm particle size. Mobile phase A was H2O, modified with 0.15% formic acid, and mobile phase B was MeOH (100% A→97% A over 1 min, flow rate 0.5 mL/min). Waters TQD triple quad mass spectrometer was equipped with an electrospray ion source operating in the positive mode. Source parameters were set as follows: desolvation gas flow 1000 L/h, cone gas flow 50 L/h; collision gas flow 0.2 mL/min; source temperature 130° C.; desolvation temperature 450° C. Dimethyl glicine (DMG) was added to samples as internal standard at 100 μM final concentration. The monitored transitions were m/z 184.00 to 85.7 (collision energy 24 eV) for phosphocholine and m/z 103.0 to 57.5 (collision energy 13 eV) for DMG. The concentration of PCho in the sample was normalized to the total volume of cells (number cells×volume of single cell considered like a sphere).
As an example, the mechanism of action of cpd 39 is reported in Table 2 (Control refers to untreated cells).

Another assay deals with T2, hChoKβ FL (Homo sapiens, UniProt Q9Y259).
T2 construct: hChoKβ full length (FL), corresponding to aminoacids 2-395; GST (N, cleaved yes); PreScission Protease recognition site (N); made in house; host or cells: Escherichia coli BL21pLysS (DE3)
Nature of the assay: Biochemical kinase inhibition assay (Kinase-Glo luminescent) on hChoKβ FL. The conditions noted are these: recombinant hChoKβ FL 30 nM, ATP 5 μM, choline 20 μM, 60 min rt; read-out: ChoKβ IC50. The method, boiled down: as §1

Assay [2] concerns [Phosphocholine] in MDA-MB-468 cell supernatants. In words: Phosphocholine determination in cell culture medium (supernatants). In kind it is cell-based. The conditions noted are these: Homo sapiens, 24 h treatment, vs untreated control. How it is done:
as §2
as §3, with “Dimethyl glicine (DMG) was added to samples as internal standard at 100 μM final concentration.” left out, “The concentration of PCho in the sample was normalized to the total volume of cells (number cells×volume of single cell considered like a sphere).” left out
For the determination of phosphocholine in cell culture medium, cell culture supernatants (500 μL) were denatured by adding 100 μL of trichloroacetic acid (TCA) 1M containing dimethyl glicine (DMG) (100 μM), used as internal standard. […] The supernatants were subsequently analyzed for phosphocholine determination. […]

The structures appear in SMILES notation.

T2 sequence (Q9Y259 2-395): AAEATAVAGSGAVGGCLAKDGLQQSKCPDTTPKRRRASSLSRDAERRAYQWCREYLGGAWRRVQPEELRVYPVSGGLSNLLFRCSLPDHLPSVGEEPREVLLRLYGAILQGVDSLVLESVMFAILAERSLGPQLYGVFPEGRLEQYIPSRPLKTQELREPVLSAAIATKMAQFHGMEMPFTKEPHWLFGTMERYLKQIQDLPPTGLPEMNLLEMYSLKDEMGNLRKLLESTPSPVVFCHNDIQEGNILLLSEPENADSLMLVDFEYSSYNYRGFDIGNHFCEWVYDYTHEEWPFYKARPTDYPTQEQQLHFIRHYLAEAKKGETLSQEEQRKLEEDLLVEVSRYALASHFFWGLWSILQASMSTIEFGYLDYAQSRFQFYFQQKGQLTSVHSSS
T1 sequence (P35790 50-439 isoform P35790-2): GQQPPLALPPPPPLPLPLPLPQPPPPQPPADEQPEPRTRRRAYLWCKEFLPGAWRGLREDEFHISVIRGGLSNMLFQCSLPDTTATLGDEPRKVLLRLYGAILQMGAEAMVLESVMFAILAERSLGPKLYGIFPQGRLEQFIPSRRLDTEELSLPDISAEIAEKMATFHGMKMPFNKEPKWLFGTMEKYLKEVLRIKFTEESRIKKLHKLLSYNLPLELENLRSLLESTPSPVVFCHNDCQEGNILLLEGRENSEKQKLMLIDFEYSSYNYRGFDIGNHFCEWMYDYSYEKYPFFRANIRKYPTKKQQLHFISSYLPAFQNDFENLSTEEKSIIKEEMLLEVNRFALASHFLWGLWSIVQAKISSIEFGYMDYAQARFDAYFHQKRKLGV

As for `CC1(C)Cc2cnc(N)nc2-c2[nH]nc(C(=O)Nc3nc(CC(=O)N4CCC(N5CCCCC5)CC4)cs3)c21` [compound 39], the figures for the IC50 at Δ49N-hChoKα and on hChoKβ FL were 2 nM and 84 nM, respectively. Besides, the inhibition at 0.08 µM is 35% in assay [1] (0.08 μM compound) and 42% in assay [2] (0.08 μM compound). For the same compound, the values for the inhibition at 0.4 µM in assay [1] (0.4 μM compound) and in assay [2] (0.4 μM compound) were 87% and 85%, respectively. In addition, the results for the inhibition at 2 µM in assay [1] (2 μM compound) and in assay [2] (2 μM compound) were 98% and 88%, respectively.
With `CC(C)=CC(=O)CC(C)(C)NC(=O)Cc1csc(NC(=O)c2n[nH]c3c2C(C)(C)Cc2cnc(N)nc2-3)n1` [compound 220], the IC50 at Δ49N-hChoKα stood at 30 nM; on hChoKβ FL, 1380 nM.
Regarding `CC1(C)CCC(N2CCC(OCc3csc(NC(=O)c4n[nH]c5c4C(C)(C)Cc4cnc(N)nc4-5)n3)CC2)CC1` [compound 221], the IC50 on Δ49N-hChoKα amounted to 10 nM; on hChoKβ FL, 782 nM.
On the same counts, the results for `CC1(C)Cc2cnc(N)nc2-c2[nH]nc(C(=O)Nc3nc(CC(=O)N4CCC(N5CCCC(F)(F)C5)CC4)cs3)c21` [compound 222] are 10 nM and 1650 nM.
In the case of `CC1(C)Cc2cnc(N)nc2-c2[nH]nc(C(=O)Nc3nc(COC4CCN(C5CCCCCC5)CC4)cs3)c21` [compound 223], the IC50 on Δ49N-hChoKα was found to be 4 nM; on hChoKβ FL, 184 nM.
Take `CC1CCCN(C2CCN(C(=O)Cc3csc(NC(=O)c4n[nH]c5c4C(C)(C)Cc4cnc(N)nc4-5)n3)CC2)C1` (stereo not shown) [compound 224]: the IC50 on Δ49N-hChoKα turned out to be 5 nM; at hChoKβ FL, 213 nM.
In the case of `CC1CCN(C2CCN(C(=O)Cc3csc(NC(=O)c4nn(C)c5c4CC(C)(C)c4cnc(N)nc4-5)n3)CC2)CC1` [compound 225], the IC50 at Δ49N-hChoKα worked out at 9 nM; on hChoKβ FL, 2260 nM.
Consider `CC1(OCc2csc(NC(=O)c3n[nH]c4c3C(C)(C)Cc3cnc(N)nc3-4)n2)CCN(C2CCCCCC2)CC1` [compound 226], for which the IC50 on Δ49N-hChoKα was 20 nM; on hChoKβ FL, 376 nM.
With `CC1CCN(C2(C)CCN(C(=O)Cc3csc(NC(=O)c4n[nH]c5c4C(C)(C)Cc4cnc(N)nc4-5)n3)CC2)CC1` [compound 227], the values for the IC50 at Δ49N-hChoKα and at hChoKβ FL were 2 nM and 26 nM, respectively.
On to `CC1CCN(C2CCN(C(=O)c3ccc4nc(NC(=O)c5n[nH]c6c5C(C)(C)Cc5cnc(N)nc5-6)sc4c3)CC2)CC1` [compound 228], for which the IC50 at Δ49N-hChoKα was 9 nM; on hChoKβ FL it was 963 nM.
In the same order, the values of `CC1(C)Cc2cnc(N)nc2-c2[nH]nc(C(=O)Nc3nc(CC(=O)N4CCC(N5CCC(F)(F)CC5)CC4)cs3)c21` [compound 229] are 18 nM and 840 nM.
In the same order, the values of `CC1(C)Cc2cnc(N)nc2-c2[nH]nc(C(=O)Nc3nc(COC4CCN(C5CCC6(CC5)CC6)CC4)cs3)c21` [compound 230] are 24 nM and 594 nM.
Consider `CC1CCN(C2CCN(C(=O)Cc3csc(NC(=O)c4n[nH]c5c4CC(C)(C)c4cnc(N)nc4-5)n3)CC2)CC1` [compound 231], for which the concentration for half-maximal inhibition (IC50) at Δ49N-hChoKα amounted to 3 nM; on hChoKβ FL, 104 nM.
`CC1(C)Cc2c(C(=O)Nc3nc(COC4CCN(C5CCCCCC5)CC4)cs3)n[nH]c2-c2nc(N)ncc21` [compound 232]: the results for the IC50 on Δ49N-hChoKα and at hChoKβ FL were 8 nM and 146 nM, respectively.

The term IC50 denotes the concentration that gives 50% inhibition. The term inhibition denotes the drop in the measured response relative to a control, in per cent.
